Series [1] can be described thus: transport through open pores in the SC of a plasma treated area. The conditions noted are these: applied more than 5 minutes after plasma treatment.
Series [2] in a line: plasmaporation-enhanced transdermal delivery across ex vivo porcine skin. It is filed as in vitro ADME. The text has this: 27, 2013 and Sep. 29, 2013 incorporated herein. Others devices and techniques are described in U.S. Non-Provisional application Ser. No. 14/564,717 filed on Dec. 9, 2014, U.S. Non-Provisional application Ser. No. 14/610,467 filed on Jan. 30, 2015, and U.S. Non-Provisional application Ser. No. 14/967,512 filed on Dec. 14, 2015. All of these applications are incorporated by reference herein in their entirety.

Where only a bound is given, the exact number is not on record here.

Regarding Dextran [10 kDa Dextran], the “transport through the SC when applied after 5 minutes” value in series [1] is “no longer passed through the SC”.
Turning to dextran, in series [2], the skin damage result is given as “without creating skin damage”. Further, in series [2] (topically applied), the “time of transdermal delivery of topically applied molecules across skin with plasmaporation” value is not above 15 min.
